Data published in patent USRE40259E1, “Alpha-aminoamide derivatives useful as analgesic agents” (Newron Pharmaceuticals, S.p.A., priority 1997, dated 2008).
Marks after values point to notes of the source that are not given here.

Tests used:
Format in all cases: in vivo
[1] = test system: Male NMRI CD-1 mice; assay: Formalin test (formalin nociception test in mice); conditions: for Licking time, Acute phase / Licking time, Chronic phase: 60 min before formalin, mice; for Licking time, Acute phase: acute phase 0-5 min; for Licking time, Chronic phase: chronic phase 30-40 min; for Effect on cumulative licking time in both phases of the formalin test: 7.5-60.0 mg/kg po, result in words
Description: Formalin test is a useful tool for obtaining neurogenic inflammation and continuous pain (Shibata et al, Pain, 38: 347-352, 1989).
Formalin produces a distinct biphasic response. The early phase seems to be caused predominantly by C-fibre activation due to peripheral stimulus, while the late phase appears to be dependent on the combination of an inflammatory reaction in the peripheral tissue and functional changes in the dorsal horn of the spinal cord. This functional changes seem to be initiated by the C-fibre barrage during the early phase (Tjolsen et al. Pain 51, 5-17, 1992). Substance P and bradykinin participate in the early phase, while histamine, serotonin, prostaglandins and bradykinin are involved in the late phase.
Male NMRI CD-1 mice (22-25 g) were injected with […] μl of 2.7% solution of formalin into the right hindpaw and placed immediately into observation chambers. The cumulative licking time of the injected paw was recorded in the acute phase (0-5 min) and in the chronic phase (30-40 min) of the nociceptive response of formalin.
The two representative compounds of the invention (S)-2-[4-(3- fluorobenzyloxy)benzylamino]-propanamide, methanesulfonate (internal code PNU 151774E) and (S)-[2-[4-(3-fluorobenzyloxy)benzylamino]-2-methyl-propanamide […] were administered 60 min before formalin injection at the doses of 7.5, 15.0, 30.0 and 60.0 mg/kg; po. Morphine (5 mg/kg; sc) was used as a positive standard. The activities data were analysed by Dunnett's t-test.

[2] = test system: mice; assay: Rotarod (motor co-ordination); conditions: for Rotarod co-ordination (mice fallen/total mice): 2 min on rotarod; for Effect on rotarod activity: 7.5-60.0 mg/kg po, result in words
Experimental: (§1) The effects of these compounds on locomotor activity and rotarod (a test for evaluating motor co-ordination) were studied in order to exclude changes in these parameters as confounding factors in the evaluation of the formalin response. The locomotor activity test lasted 15 min. Five minutes after testing locomotor activity, the mice were put on the rotarod for 2 min and the number of mice falling within this time were counted. Compounds PNU 151774E and PNU 156654E were tested at the doses of 7.5, 15.0, 30.0 and 60.0 mg/kg; po. The compounds were administered 60 min before locomotor activity test.

[3] = test system: mice; assay: Locomotor activity test; conditions: for Locomotor activity counts (mean ± sem): 60 min before test, 15 min test, mice; for Effect on locomotor activity: 7.5-60.0 mg/kg po, result in words
Experimental: as §1

| SMILES | Licking time, Acute phase ([1]; 7.5 mg/kg po) | Licking time, Chronic phase ([1]; 7.5 mg/kg po) | Licking time, Acute phase ([1]; 15.0 mg/kg po) | Licking time, Chronic phase ([1]; 15.0 mg/kg po) | Licking time, Acute phase ([1]; 30.0 mg/kg po) | Licking time, Chronic phase ([1]; 30.0 mg/kg po) | Licking time, Acute phase ([1]; 60.0 mg/kg po) | Licking time, Chronic phase ([1]; 60.0 mg/kg po) | Effect on cumulative licking time in both phases of the formalin test [1] | Rotarod co-ordination (mice fallen/total mice) ([2]; 7.5 mg/kg po) | Rotarod co-ordination (mice fallen/total mice) ([2]; 15 mg/kg po) | Rotarod co-ordination (mice fallen/total mice) ([2]; 30 mg/kg po) | Rotarod co-ordination (mice fallen/total mice) ([2]; 60 mg/kg po) | Effect on rotarod activity [2] | Locomotor activity counts (mean ± sem) ([3]; 7.5 mg/kg po) [counts] | Locomotor activity counts (mean ± sem) ([3]; 15 mg/kg po) [counts] | Locomotor activity counts (mean ± sem) ([3]; 30 mg/kg po) [counts] | Locomotor activity counts (mean ± sem) ([3]; 60 mg/kg po) [counts] | Effect on locomotor activity [3] |
| --- | --- | --- | --- | --- | --- | --- | --- | --- | --- | --- | --- | --- | --- | --- | --- | --- | --- | --- | --- |
| CC(C)(NCc1ccc(OCc2cccc(F)c2)cc1)C(N)=O [PNU 156654E, 2-[4-(3-fluorobenzyloxy)benzylamino]-2-methyl-propanamide] | 108.4 ± 4.2^ sec | 62.4 ± 3.6^ sec | 79.7 ± 3.7^a sec | 42.1 ± 6.2^a sec | 60.0 ± 2.3^a sec | 37.7 ± 6.9^a sec | 44.4 ± 4.2^a sec | 17.3 ± 6.6^a sec | dose-dependently reduced cumulative licking time in both phases | 0/10 | 0/10 | 0/10 | 0/10 | without any effect | 1966 ± 188 | 2110 ± 256 | 2272 ± 317 | 2119 ± 310 | without any effect |
| C[C@H](NCc1ccc(OCc2cccc(F)c2)cc1)C(N)=O [PNU 151774E, (S)-2-[4-(3-fluorobenzyloxy)benzylamino]-propanamide, methanesulfonate] | 137.9 ± 2.4^a sec | 72.4 ± 2.4^ sec | 87.9 ± 3.3^a sec | 64.3 ± 2.8^b sec | 79.4 ± 3.0^a sec | 56.9 ± 2.6^a sec | 63.1 ± 2.6^a sec | 38.1 ± 3.6^a sec | dose-dependently reduced cumulative licking time in both phases | 0/10 | 0/10 | 0/10 | 0/10 | without any effect | 2908 ± 234 | 2795 ± 255 | 2347 ± 203 | 2240 ± 195 | without any effect |
